{"source": "patent US8124069B2", "about": "“Immunogenic peptides” (Rush University Medical Center, priority 2002, dated 2012)", "key": {"dendritic cells": {"system": "dendritic cells", "test": "Phenotypic analysis of dendritic cells matured with maturation factors", "format": "cell-based, human", "settings": "DCs matured during last three days of culture", "experimental": "Immature DCs were generated according to modified protocols of Romani et al. (1994) and Bakker et al. (1995). Briefly, fresh or frozen/thawed CD14+ cells were cultured in RPMI 1640 medium (Gibco-Life Technologies) supplemented with 10% FCS, 1,000 U/ml GM-CSF and 1,000 U/ml IL-4. The cell cultures were fed with fresh medium and GM-CSF and IL-4 every other day and cell differentiation was monitored by light microscopy. On day 7, the cultures were supplemented with different combinations of DC maturation factors such as lipopolysaccharide (100 U/ml), TNF-α (10 ng/ml), or IFN-α (1,000 U/ml) plus TNF-α (10 ng/ml). After three days of incubation, mature DCs (mDC) were harvested and evaluated for their phenotypes by flow cytometry. The maturation factor(s) yielding optimal DC maturation was determined and used to generate mDCs for peptide pulsing in upcoming studies. In this example, immature DCs obtained by the culture of CD 14+ monocytes with GM-CSF (1,000 U/ml) and IL-4 (1,000 U/ml) were induced to undergo maturation by incubation with LPS (100 Units/ml), TNF-α10 ng/ml) or TNF-α (10 ng/ml)+IFN-α50 ng/ml) during the final three days of the culture period. […] The highest up-regulation of the co-stimulatory (CD80 and CD86) and HLA-A2.1 MHC class I molecules was detected on DCs treated with TNF-α+IFN-α (Table 5)."}, "HLA-A2.1": {"target": "HLA-A2.1 (Homo sapiens, UniProt P04439, D140Y/D185E/D98H/E176V/E277Q/G131W/G231S/I119V/I121R/I166T/I218V/L300P/L318F/N151K/N90K/P208A/P217A/Q86G/Q94H/R138H/R169H/T345S)", "test": "Peptide binding to HLA-A2.1+ T2 cells under Brefeldin A treatment (peptide/HLA-A2.1 complex stability)"}, "[1]": {"system": "HLA-A2.1 positive ML-2 cells", "test": "Cytotoxicity of peptide-specific CTLs against ML-2 cells (51Cr release)", "format": "cell-based, human", "settings": "for Cytotoxicity of peptide-specific CTLs against ML-2 cells (%): target:effector 1:60", "description": "The present example illustrates that that the present peptides are capable of inducing a T-lymphocyte response. In this example, antigen presenting cells were pulsed at 150 micrograms of each peptide per 1 million antigen presenting cells with the following amino acid sequences: […]"}, "[2]": {"system": "effector cells (T lymphocytes)", "settings": "APC: T2; 2 stims"}}, "note": "“And” between values parts separate entries of the source, which are not always exact repeats. Equal entries are not always repeated.", "data": [{"substance": "TNF-α", "values": [{"measurement": "CD80 expression, mean channel fluorescence (MCF)", "setting": "dendritic cells", "value": 107}, {"measurement": "CD86 expression, mean channel fluorescence (MCF)", "setting": "dendritic cells", "value": 96}, {"measurement": "HLA-A2.1 expression, mean channel fluorescence (MCF)", "setting": "dendritic cells", "value": 475}]}, {"substance": "YLISGDSPV (listed as Homo sapiens) [SEQ ID NO: 7, modified CD33 peptide]", "values": [{"measurement": "binding to HLA-A2.1 on T2 cells, in words", "setting": "HLA-A2.1", "value": "good and prolonged stable binding"}]}, {"substance": "ALISGDSPV (listed as Homo sapiens) [SEQ ID NO: 16, modified CD33 peptide]", "values": [{"measurement": "immunogenicity in similar experiments", "setting": "[1]", "value": "immunogenic"}, {"measurement": "binding to HLA-A2.1 on T2 cells, in words", "setting": "HLA-A2.1", "value": "good and prolonged stable binding"}]}, {"substance": "YLALCLCLI (listed as Homo sapiens) [SEQ ID NO: 1]", "values": [{"measurement": "Cytotoxicity of peptide-specific CTLs against ML-2 cells (%)", "setting": "[1]; APC: T2, 2 stimulations, donors F, G", "value": "21% and 34%"}, {"measurement": "Cytotoxicity of peptide-specific CTLs against ML-2 cells (%)", "setting": "[1]; APC: T2, 3 stimulations, donors F, G", "value": "36% and 64%"}, {"measurement": "Expression level of CD4 (T helper), mean fluorescence intensity", "setting": "[2]", "value": "81 and 57"}, {"measurement": "Expression level of CD45RO (Memory), mean fluorescence intensity", "setting": "[2]", "value": "1262 and 1432"}, {"measurement": "Expression level of CD95 (Activation), mean fluorescence intensity", "setting": "[2]", "value": "99 and 102"}]}, {"substance": "YIISGDSPV (listed as Homo sapiens) [SEQ ID NO: 3, modified CD33 peptide]", "values": [{"measurement": "Cytotoxicity of peptide-specific CTLs against ML-2 cells (%)", "setting": "[1]; APC: DC, 2 stimulations, different donors", "value": 37, "unit": "%"}]}, {"substance": "YIISGISPV (listed as Homo sapiens) [SEQ ID NO: 6, modified CD33 peptide]", "values": [{"measurement": "binding to HLA-A2.1 on T2 cells, in words", "setting": "HLA-A2.1", "value": "good and prolonged stable binding"}]}]}
